Reference: publication PMC8087158 (Angewandte Chemie (International ed. in English), 2021)

Columns and labels:
Pf Dd2β6A117D = experiment: Growth inhibition of proteasome inhibitor-resistant Pf Dd2β6A117D; type: cell-based, Plasmodium falciparum; settings: relative to Dd2
Pf20S β5 [1] = experiment: Blocking of MV151 labelling of Pf20S β5; type: binding, Plasmodium falciparum; settings: with or without WLW-VS
[2] = system: artemisinin-sensitive Pf Cam3.I^Rev; experiment: Modified ring-stage survival assay, combination with DHA, isobologram; type: cell-based, Plasmodium falciparum; settings: 3-h pulse of DHA, continuous TDI-8304 for further 69 h; parasitemia at 72 h
[3] = system: P. falciparum lab strain Dd2; experiment: Growth inhibition of Pf Dd2; type: cell-based, Plasmodium falciparum
[4] = system: Pf strain 4884 (ART-resistant); experiment: Growth inhibition of Pf strain 4884; type: cell-based, Plasmodium falciparum
[5] = system: Pf strain HB3 (chloroquine-sensitive); experiment: Growth inhibition of Pf strain HB3; type: cell-based, Plasmodium falciparum
[6] = system: artemisinin-resistant Pf Cam3.I^R539T; experiment: Modified ring-stage survival assay, combination with DHA, isobologram; type: cell-based, Plasmodium falciparum; settings: 3-h pulse of DHA, continuous TDI-8304 for further 69 h; parasitemia at 72 h
Pf20S β5 [7] = experiment: Hydrolysis of suc-LLVY-AMC by Pf20S, time courses of inhibition; type: biochemical, Plasmodium falciparum
[8] = system: polyubiquitinated proteins in Pf trophozoites; experiment: Accumulation of polyubiquitinated proteins in parasites; type: cell-based, Plasmodium falciparum; settings: 6-hour exposure, 1 μM
Pf Dd2β5A49S = experiment: Growth inhibition of proteasome inhibitor-resistant Pf Dd2β5A49S; type: cell-based, Plasmodium falciparum; settings: relative to Dd2
[9] = system: P. falciparum Pf3D7^0087/N9; experiment: Humanized mouse model of Pf infection, parasitemia; type: in vivo, NOD-SCID IL-2R-null mice transfused with human erythrocytes; settings: s.c. 100 mg/kg b.i.d., days 3 – 6 post infection
[10] = system: P. falciparum strain Pf 3D7; experiment: Growth inhibition of erythrocytic stage P. falciparum Pf 3D7; type: cell-based, Plasmodium falciparum
[11] = system: Pf strain 3663 (ART-sensitive); experiment: Growth inhibition of Pf strain 3663; type: cell-based, Plasmodium falciparum

Q: With `O=C(NC1CCCC1)[C@@H]1CCCCOc2cccc(c2)C[C@H](N2CCCC2=O)C(=O)N[C@@H](CCN2CCOCC2)C(=O)N1` [TDI-8304] as the compound, how does the “Reduction in potency against Dd2β6A117D” value (Pf Dd2β6A117D) read?
A: The value was ~ 18 fold.

Q: And the “Blocking of labelling of Pf20S β5 by MV151” value (Pf20S β5 [1])?
A: Its value is “dose-dependently blocked labelling”.

Q: What about the “Interaction with DHA (isobologram)” value [2] of the same compound?
A: Its value is “synergistic killing”.

Q: And the “Potency against P. falciparum lab strain Dd2” value [3]?
A: Its value is “potent”.

Q: What about the “Activity against Pf strain 4884” value [4] of the same compound?
A: Its value is “comparable activity”.

Q: And the “Activity against Pf strain HB3” value [5]?
A: The value was “comparable activity”.

Q: And the “Interaction with DHA (isobologram)” value [6]?
A: Its value is “synergistic killing”.

Q: What about the “t1/2 half-life for the Pf20S:TDI-8304 complex” value (Pf20S β5 [7]) of the same compound?
A: The value was 14.4 min.

Q: And the Inhibition modality (Pf20S β5 [7]; induced-fit mechanism)?
A: The Inhibition modality was “time-dependent inhibition”.

Q: What about the “Accumulation of polyubiquitinated proteins” value [8] of the same compound?
A: The value was “accumulation of polyubiquitinated proteins”.

Q: What about the “EC50 against Dd2β5A49S compared with Dd2” value (Pf Dd2β5A49S) of the same compound?
A: Its value is “comparable”.

Q: What about the “Reduction of parasitemia, one mouse” value [9] of the same compound?
A: Its value is 2 log10.

Q: What about the “Potency (EC50) against P. falciparum Pf 3D7, in words” value [10] of the same compound?
A: The value was “highly potent”.

Q: What about the EC90 ([10]; strain not given, used as exposure threshold) of the same compound?
A: Its EC90 is 29 nM.

Q: And the “Activity against Pf strain 3663” value [11]?
A: The value was “comparable activity”.
